In paper PMC12827894, “Structure-guided design of picomolar-level macrocyclic TRPC5 channel inhibitors with antidepressant activity” (Acta Pharmaceutica Sinica. B, 2025):

Assays:
[1] = target: T1, TRPC5 (Homo sapiens, UniProt Q9UL62); test: Whole-cell patch-clamp, TRPC5, Ca2+-activated condition; type: cell-based; details: read-out: IC50, TRPC5, endogenous Ca2+-evoked activation
T1 sequence (Q9UL62 1-973): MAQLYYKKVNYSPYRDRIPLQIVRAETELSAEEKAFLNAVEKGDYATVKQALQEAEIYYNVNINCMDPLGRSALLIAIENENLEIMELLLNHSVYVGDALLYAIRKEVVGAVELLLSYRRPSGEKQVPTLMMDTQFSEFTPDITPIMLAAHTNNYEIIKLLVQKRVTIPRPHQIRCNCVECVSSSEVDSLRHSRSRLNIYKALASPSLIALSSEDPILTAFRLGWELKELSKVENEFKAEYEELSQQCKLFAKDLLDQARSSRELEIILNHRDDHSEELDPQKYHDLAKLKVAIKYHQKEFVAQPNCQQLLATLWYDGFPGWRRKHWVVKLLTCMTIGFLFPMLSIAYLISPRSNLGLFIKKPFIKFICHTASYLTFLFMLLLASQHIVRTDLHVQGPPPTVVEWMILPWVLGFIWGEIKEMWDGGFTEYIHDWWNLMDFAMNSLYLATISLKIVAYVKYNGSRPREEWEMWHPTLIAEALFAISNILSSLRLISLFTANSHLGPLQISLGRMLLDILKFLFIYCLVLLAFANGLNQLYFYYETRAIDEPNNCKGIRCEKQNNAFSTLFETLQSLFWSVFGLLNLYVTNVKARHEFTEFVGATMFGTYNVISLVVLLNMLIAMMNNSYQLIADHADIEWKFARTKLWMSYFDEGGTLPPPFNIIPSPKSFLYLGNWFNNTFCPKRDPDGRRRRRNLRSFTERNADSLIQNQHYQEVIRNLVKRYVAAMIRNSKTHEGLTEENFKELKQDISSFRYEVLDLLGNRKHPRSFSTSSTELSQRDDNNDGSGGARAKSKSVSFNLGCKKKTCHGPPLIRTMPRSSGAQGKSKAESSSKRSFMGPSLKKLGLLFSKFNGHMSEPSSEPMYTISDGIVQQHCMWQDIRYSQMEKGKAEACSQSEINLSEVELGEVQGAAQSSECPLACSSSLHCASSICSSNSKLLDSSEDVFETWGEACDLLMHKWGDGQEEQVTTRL

[2] = target: TRPC3 (Homo sapiens, UniProt Q13507); test: Patch-clamp selectivity, TRPC3; type: cell-based; details: 1 μmol/L
[3] = target: TRPC6 (Homo sapiens, UniProt Q9Y210); test: Patch-clamp selectivity, TRPC6; type: cell-based; details: 1 μmol/L
[4] = target: TRPM3 (Homo sapiens, UniProt Q9HCF6); test: Patch-clamp selectivity, TRPM3; type: cell-based; details: 10 μmol/L
[5] = target: T2, TRPC5 Q573A (Homo sapiens, UniProt Q9UL62, Q573A); test: Inhibition of TRPC5 mutant Q573A; type: cell-based; details: TRPC5 Q573A vs wild type
T2 construct: full-length wild-type or mutant TRPC5 was cloned into a pcDNA3.1 vector; expressed in transfected cells; host or cells: HEK293T
T2 sequence (Q9UL62 whole entry Q573A): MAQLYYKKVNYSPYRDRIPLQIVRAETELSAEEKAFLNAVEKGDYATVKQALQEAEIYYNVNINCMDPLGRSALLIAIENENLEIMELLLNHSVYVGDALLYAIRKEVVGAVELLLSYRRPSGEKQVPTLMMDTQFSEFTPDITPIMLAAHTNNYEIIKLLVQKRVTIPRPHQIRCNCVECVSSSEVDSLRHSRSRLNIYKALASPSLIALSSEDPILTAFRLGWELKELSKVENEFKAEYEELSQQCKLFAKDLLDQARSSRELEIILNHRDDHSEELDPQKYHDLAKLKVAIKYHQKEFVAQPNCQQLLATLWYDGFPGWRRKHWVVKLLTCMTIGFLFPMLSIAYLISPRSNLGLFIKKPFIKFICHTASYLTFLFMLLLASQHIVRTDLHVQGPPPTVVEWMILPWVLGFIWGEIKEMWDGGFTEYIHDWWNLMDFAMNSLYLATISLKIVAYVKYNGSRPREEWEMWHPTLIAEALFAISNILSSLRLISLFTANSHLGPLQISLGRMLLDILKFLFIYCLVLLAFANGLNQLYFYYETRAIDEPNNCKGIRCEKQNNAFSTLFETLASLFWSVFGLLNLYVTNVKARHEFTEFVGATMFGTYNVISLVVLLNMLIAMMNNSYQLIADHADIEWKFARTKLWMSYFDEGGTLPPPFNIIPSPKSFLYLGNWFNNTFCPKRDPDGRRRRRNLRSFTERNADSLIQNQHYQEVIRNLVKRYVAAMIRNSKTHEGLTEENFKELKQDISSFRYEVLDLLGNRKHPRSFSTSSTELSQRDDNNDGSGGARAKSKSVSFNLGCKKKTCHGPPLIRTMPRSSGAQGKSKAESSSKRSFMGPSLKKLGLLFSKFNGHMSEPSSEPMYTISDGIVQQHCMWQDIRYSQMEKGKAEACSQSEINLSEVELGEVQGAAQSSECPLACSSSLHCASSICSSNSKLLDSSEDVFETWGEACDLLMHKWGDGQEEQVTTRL

[6] = system: C57BL/6J mice; test: m-CPP-induced anxiety model, elevated plus maze; type: in vivo; details: 10 mg/kg p.o.
[7] = system: C57BL/6J mice; test: m-CPP-induced anxiety model, marble burying test; type: in vivo; details: p.o.
[8] = target: T3, M2 (Homo sapiens, UniProt P08172); test: cell-based; type: cell-based
T3 construct: purchased ICE Bioscience ICESTP SafetyOne44 Panel
T3 sequence (P08172 whole entry): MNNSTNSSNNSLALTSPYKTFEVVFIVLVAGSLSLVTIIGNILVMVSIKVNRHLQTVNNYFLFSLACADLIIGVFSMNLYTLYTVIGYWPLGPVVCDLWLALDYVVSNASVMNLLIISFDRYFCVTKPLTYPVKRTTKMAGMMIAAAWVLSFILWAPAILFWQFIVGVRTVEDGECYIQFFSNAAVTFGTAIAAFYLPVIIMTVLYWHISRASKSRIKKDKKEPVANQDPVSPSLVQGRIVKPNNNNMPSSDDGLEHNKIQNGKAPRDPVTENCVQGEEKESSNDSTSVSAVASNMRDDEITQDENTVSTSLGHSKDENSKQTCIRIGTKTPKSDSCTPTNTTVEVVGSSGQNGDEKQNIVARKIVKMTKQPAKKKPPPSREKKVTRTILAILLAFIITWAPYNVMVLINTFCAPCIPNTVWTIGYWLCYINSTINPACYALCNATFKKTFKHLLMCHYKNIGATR

[9] = target: T4, 5-HT1B (Homo sapiens, UniProt P28222); test: cell-based; details: 10 μmol/L
T4 construct: purchased ICE Bioscience ICESTP SafetyOne44 Panel
T4 sequence (P28222 whole entry): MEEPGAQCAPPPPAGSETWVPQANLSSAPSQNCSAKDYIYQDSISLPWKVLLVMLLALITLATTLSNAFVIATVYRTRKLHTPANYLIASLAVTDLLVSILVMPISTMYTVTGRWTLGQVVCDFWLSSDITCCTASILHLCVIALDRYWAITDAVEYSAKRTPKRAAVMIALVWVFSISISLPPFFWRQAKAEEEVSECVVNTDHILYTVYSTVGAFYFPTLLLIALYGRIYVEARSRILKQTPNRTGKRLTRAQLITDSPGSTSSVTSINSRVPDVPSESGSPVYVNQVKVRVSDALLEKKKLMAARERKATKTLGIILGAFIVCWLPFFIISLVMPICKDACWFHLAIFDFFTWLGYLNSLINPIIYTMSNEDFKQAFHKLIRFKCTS

[10] = target: T5, CCK1 (Homo sapiens, UniProt P32238); test: SafetyOne44 panel: CCK1; type: cell-based; details: 10 μmol/L
T5 construct: purchased ICE Bioscience ICESTP™ SafetyOne44 Panel
T5 sequence (P32238 1-428): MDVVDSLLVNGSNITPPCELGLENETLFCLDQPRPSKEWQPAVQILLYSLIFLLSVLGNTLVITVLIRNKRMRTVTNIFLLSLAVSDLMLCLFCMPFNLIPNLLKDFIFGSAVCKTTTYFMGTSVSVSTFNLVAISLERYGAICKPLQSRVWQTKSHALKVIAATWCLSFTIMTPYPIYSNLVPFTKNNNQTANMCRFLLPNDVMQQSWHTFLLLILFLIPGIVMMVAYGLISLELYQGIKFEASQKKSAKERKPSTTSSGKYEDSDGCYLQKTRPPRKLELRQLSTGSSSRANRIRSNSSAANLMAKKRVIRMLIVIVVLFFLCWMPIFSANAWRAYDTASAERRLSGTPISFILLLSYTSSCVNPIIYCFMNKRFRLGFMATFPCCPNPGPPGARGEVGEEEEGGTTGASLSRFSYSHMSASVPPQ

[11] = target: T6, D1 (Homo sapiens, UniProt P21728); test: cell-based; type: cell-based
T6 construct: purchased ICE Bioscience ICESTP™ SafetyOne44 Panel
T6 sequence (P21728 whole entry): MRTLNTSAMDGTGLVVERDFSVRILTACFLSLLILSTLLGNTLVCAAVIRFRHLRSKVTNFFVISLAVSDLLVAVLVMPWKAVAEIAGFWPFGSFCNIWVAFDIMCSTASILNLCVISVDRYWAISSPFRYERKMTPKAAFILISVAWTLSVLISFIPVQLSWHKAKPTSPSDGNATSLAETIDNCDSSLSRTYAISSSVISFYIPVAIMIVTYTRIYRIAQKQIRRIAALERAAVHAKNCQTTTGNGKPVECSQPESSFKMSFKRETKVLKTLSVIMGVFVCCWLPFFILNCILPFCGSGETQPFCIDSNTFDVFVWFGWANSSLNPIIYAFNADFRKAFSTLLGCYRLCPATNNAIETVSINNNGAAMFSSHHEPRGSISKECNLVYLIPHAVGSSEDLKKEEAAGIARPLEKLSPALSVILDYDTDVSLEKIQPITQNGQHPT

[12] = target: T7, 5-HTT (Homo sapiens, UniProt P31645); test: SafetyOne44 panel: 5-HTT; type: cell-based; details: 10 μmol/L, read-out: Antagonist JDIC-127 @10 μmol/L
T7 construct: purchased ICE Bioscience ICESTP™ SafetyOne44 Panel

[13] = target: T8, NET (Homo sapiens, UniProt P23975); test: SafetyOne44 panel: NET; type: cell-based; details: NET, 10 μmol/L; read-out: Antagonist JDIC-127 @10 μmol/L
T8 construct: ICE Bioscience ICESTP SafetyOne44 Panel

[14] = target: T9, Nav1.5 (Homo sapiens, UniProt Q14524); test: SafetyOne44 panel ion channels: Nav1.5; type: cell-based; details: Nav1.5, 5 μmol/L
T9 construct: ICE Bioscience ICESTP SafetyOne44 Panel
T9 sequence (Q14524 whole entry): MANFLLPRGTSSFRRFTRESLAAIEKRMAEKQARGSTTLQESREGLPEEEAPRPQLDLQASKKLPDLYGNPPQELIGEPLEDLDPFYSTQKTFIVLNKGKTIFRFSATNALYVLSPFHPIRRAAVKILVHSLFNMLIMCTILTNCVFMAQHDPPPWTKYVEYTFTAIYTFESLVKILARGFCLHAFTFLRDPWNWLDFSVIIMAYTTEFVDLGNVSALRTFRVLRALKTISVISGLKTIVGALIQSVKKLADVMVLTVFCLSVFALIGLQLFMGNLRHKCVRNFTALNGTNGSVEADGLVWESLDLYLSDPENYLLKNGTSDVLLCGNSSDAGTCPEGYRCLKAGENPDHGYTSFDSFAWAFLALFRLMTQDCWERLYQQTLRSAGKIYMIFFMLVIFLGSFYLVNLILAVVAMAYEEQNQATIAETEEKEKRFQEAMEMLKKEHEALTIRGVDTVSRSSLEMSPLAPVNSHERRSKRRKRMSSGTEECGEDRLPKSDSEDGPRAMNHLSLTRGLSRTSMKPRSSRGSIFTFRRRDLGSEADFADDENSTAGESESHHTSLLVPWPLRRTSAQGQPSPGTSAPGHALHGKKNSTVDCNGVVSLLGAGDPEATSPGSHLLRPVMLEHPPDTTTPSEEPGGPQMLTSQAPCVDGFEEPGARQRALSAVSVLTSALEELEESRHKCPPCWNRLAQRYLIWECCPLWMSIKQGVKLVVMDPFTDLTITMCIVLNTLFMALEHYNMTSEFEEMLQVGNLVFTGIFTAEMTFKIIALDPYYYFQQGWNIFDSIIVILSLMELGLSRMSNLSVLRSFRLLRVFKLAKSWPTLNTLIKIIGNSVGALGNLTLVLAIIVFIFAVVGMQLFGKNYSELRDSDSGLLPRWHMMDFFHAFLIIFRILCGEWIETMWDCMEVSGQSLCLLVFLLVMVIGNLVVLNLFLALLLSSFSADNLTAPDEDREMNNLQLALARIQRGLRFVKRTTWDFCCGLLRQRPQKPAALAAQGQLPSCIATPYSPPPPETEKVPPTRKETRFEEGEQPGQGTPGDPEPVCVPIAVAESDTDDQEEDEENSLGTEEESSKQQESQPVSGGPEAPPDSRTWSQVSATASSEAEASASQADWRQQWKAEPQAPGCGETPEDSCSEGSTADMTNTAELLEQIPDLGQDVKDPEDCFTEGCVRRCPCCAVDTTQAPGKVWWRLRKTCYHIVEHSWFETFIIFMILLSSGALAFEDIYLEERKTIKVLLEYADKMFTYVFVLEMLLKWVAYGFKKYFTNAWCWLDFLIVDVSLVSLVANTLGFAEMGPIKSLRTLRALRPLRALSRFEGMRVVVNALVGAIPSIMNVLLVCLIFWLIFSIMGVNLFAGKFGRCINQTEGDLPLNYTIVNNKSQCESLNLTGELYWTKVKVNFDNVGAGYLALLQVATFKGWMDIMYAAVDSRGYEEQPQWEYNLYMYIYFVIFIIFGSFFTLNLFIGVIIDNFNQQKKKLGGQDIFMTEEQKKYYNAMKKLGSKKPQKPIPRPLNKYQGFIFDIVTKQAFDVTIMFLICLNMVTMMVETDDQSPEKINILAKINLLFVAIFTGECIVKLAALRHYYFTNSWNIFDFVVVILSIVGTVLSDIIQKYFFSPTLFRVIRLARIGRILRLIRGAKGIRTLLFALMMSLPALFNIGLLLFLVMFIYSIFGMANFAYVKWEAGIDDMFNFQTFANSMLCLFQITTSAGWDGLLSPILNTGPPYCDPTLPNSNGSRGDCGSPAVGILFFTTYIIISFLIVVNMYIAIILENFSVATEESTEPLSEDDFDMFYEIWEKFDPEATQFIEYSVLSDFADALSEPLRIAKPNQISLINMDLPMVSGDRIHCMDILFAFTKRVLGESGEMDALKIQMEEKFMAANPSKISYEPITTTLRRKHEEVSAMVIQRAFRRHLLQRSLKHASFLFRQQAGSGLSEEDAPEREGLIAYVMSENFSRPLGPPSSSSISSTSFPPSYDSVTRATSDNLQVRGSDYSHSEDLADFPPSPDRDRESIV

[15] = target: hERG (Homo sapiens, UniProt Q12809); details: 10 μmol/L, patch-clamp
[16] = target: COX1 (Homo sapiens, UniProt P23219)
[17] = in vivo; details: male, C57BL/6, mouse; for Vd: C57BL/6, 2 mpk
[18] = target: COX2 (Homo sapiens, UniProt P35354); test: biochemical; details: read-out: Antagonist JDIC-127 @10 μmol/L
COX2, sequence (P35354 18-604): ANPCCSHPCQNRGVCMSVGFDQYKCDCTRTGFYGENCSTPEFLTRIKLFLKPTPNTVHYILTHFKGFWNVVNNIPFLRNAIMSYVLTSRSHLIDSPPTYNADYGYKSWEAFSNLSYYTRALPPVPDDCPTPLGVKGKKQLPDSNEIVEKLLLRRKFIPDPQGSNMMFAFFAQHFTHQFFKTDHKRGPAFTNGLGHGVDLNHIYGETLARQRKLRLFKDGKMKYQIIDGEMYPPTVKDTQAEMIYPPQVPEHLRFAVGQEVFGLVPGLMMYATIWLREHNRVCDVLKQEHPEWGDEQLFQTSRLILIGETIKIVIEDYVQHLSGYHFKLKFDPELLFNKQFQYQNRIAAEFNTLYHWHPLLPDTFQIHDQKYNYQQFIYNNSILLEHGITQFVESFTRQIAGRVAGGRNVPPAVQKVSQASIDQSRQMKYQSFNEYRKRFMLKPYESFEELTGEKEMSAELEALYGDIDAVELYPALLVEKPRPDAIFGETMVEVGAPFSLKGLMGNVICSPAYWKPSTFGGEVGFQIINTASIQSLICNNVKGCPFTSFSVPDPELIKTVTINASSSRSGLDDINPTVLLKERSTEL

For O=c1c2c3nc(n2Cc2ccc(Cl)cc2)Oc2ccc(F)c(c2)OCCCCCCn3c(=O)n1CCCO [JDIC-127], the IC50 [1] was 1.4 pM, the inhibition at 1 µM [2] was less than 20% and the inhibition at 1 µM [3] was less than 20%. For the same molecule, the inhibition at 10 µM [4] was less than 33%, the “effect of mutation on inhibitory potency of JDIC-127” value [5] was “significantly diminished” and the “percentage of entries into the open arms, EPM” value [6] was “significantly increased”. The “number of buried marbles, MBT” value [7] was “reduced”, the “Agonist JDIC-127 @10 μmol/L” value ([8]; M2, agonist mode) was 2.82% and the inhibition at 10 µM ([8]; M2, antagonist mode, 10 μmol/L, read-out: Antagonist JDIC-127 @10 μmol/L) was -0.26%. For the same molecule, the “Agonist JDIC-127 @10 μmol/L” value ([9]; agonist mode) was 10.95%, the inhibition at 10 µM ([9]; antagonist mode, read-out: Antagonist JDIC-127 @10 μmol/L) was -14.7% and the “Agonist JDIC-127 @10 μmol/L” value ([10]; CCK1, agonist mode) was “–3.36%”. The inhibition at 10 µM ([10]; CCK1, antagonist mode, read-out: Antagonist JDIC-127 @10 μmol/L) was 6.16%, the “Agonist JDIC-127 @10 μmol/L” value ([11]; D1, agonist mode) was “–1.54%” and the inhibition at 10 µM ([11]; D1, antagonist mode, 10 μmol/L, read-out: Antagonist JDIC-127 @10 μmol/L) was 8.89%. For the same molecule, the inhibition at 10 µM [12] was -31.8%, the inhibition at 10 µM [13] was -5.84% and the “Antagonist JDIC-127 @5 μmol/L” value [14] was 2.98%. The “inhibition of hERG activity” value [15] was “less than 33%”, the “Antagonist JDIC-127 @10 μmol/L” value [16] was “–5.92%” and the bioavailability [17] was 7.5%. It also gave a C0 ([17]; iv, 2 mg/kg) of 1450 ng/mL, an MRT ([17]; iv, 2 mg/kg) of 52.8 min and a clearance ([17]; iv, 2 mg/kg) of 66.8 mL/min/kg. The half-life ([17]; iv, 2 mg/kg) was 59.4 min, the Vd ([17]; iv, 2 mg/kg, VSS, i.v.) was 3.51 L/kg and the Vd ([17]; iv, 2 mg/kg, Vd) was 5.71 L/kg. The Cmax ([17]; po, 10 mg/kg) was 177 ng/mL, the MRT ([17]; po, 10 mg/kg) was 114 min and the Tmax ([17]; po, 10 mg/kg) was 15 min. The half-life ([17]; po, 10 mg/kg) was 84 min and the inhibition at 10 µM [18] was 1.38%.
